Results: US9850283B2, “Macrocyclic inhibitors of the PD-1/PD-L1 and CD80(B7-1)/PD-L1 protein/protein interactions” (BRISTOL-MYERS SQUIBB COMPANY, priority 2013, dated 2017)
Where two headings read alike, the source gives them in different places. Positions of bridges follow the written chain, without caps; N, C: chain ends. Non-standard residues stand in square brackets, D forms with d. Residues, ends and D or L forms follow the SMILES beside them. ξ: configuration not given here. Ala(indol-4-yl) = N[C@@H](Cc1cccc2[nH]ccc12)C(=O)O; Pro(4R-Bn) = O=C(O)[C@@H]1C[C@@H](Cc2ccccc2)CN1; Phe(3,5-F2) = N[C@@H](Cc1cc(F)cc(F)c1)C(=O)O; Phe(4-CH2NH2) = NCc1ccc(C[C@H](N)C(=O)O)cc1; Pro(trans-4-F) = O=C(O)[C@@H]1C[C@@H](F)CN1; Phe(3-Cl) = N[C@@H](Cc1cccc(Cl)c1)C(=O)O; Phe(4-Cl) = N[C@@H](Cc1ccc(Cl)cc1)C(=O)O; Bta = N[C@@H](Cc1csc2ccccc12)C(=O)O; Hyp = O=C(O)[C@@H]1C[C@@H](O)CN1; NMeF = CN[C@@H](Cc1ccccc1)C(=O)O; NMeNle = CCCC[C@H](NC)C(=O)O; NMeA = CN[C@@H](C)C(=O)O; Orn = NCCC[C@H](N)C(=O)O; Dab = NCC[C@H](N)C(=O)O; ξhCys = NC(CCS)C(=O)O; Sar = CNCC(=O)O

Columns and labels:
Human PD-L1/PD-1 = target: T1, Human PD-L1/PD-1 (Homo sapiens, UniProt Q9NZQ7); test: HTRF PD-1-Ig/PD-L1-His binding assay (human PD-L1)
T1 construct: made in house; host or cells: HEK293T
Method in brief: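 Soluble Fc-fused PD-1 and His-tagged PD-L1 (truncated before the transmembrane region) were combined in dPBS with 0.1% (w/v) BSA and 0.05% (v/v) Tween-20. Binding was read by HTRF using europium cryptate anti-Ig antibody (1 nM final) and APC anti-His antibody (20 nM final).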

[1] = target: T2, LK35.2-hPD-L1 cells / PE-labeled PD-1-Ig (Homo sapiens, UniProt Q9NZQ7); test: LK35.2-hPD-L1 cell binding high-content screening assay; type: cell-based
T2 construct: expressed in transfected cells; host or cells: LK35.2 mouse B cell line
Method in brief: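 Binding of PE-conjugated human PD-1-Ig (1 nM final) to human PD-L1 stably expressed on a mouse B-cell line (LK35.2) was measured by high-content imaging after washes. Compound and labeled PD-1-Ig were co-incubated 1 h at 37 °C with cells in RPMI/10% FCS.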

[2] = cluster symbol, read-out: HTRF IC50 cluster
[3] = cluster symbol, cell line of CBA not given (LK35.2-hPD-L1 or 293T-hPD-L1), read-out: CBA IC50 cluster
[4] = cell binding assay, cell line not given, cluster symbol, read-out: CBA IC50 cluster

T1 sequence (Q9NZQ7 with tags, fused parts or gaps): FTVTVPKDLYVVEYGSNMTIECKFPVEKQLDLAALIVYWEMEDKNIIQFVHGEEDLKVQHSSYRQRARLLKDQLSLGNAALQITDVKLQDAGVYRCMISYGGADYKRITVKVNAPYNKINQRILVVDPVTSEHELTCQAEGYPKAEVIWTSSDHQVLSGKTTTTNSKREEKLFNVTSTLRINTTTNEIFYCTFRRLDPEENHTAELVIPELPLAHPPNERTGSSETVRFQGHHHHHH
T2 sequence (Q9NZQ7 19-290): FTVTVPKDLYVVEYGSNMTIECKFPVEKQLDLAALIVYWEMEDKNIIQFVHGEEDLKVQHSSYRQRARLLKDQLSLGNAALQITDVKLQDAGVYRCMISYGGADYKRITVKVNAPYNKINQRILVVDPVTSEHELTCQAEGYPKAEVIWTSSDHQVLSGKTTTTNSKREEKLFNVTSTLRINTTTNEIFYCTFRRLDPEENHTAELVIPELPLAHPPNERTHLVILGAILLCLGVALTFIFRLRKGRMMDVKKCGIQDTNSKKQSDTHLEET

IC50 (Human PD-L1/PD-1; [2])	IC50 [1, 3]	IC50 [1, 4]	IC50 (Human PD-L1/PD-1; value given instead of cluster, read-out: HTRF IC50 value)	IC50 ([1]; cell binding assay, cell line not given, value given instead of cluster, read-out: CBA IC50 value)	Compound
6.76 to 30.3 nM	4.78 to 72.9 nM				CCCC[C@H]1C(=O)N(C)[C@@H](CCCC)C(=O)N[C@@H](CCCN)C(=O)N[C@H](C(=O)NCC(N)=O)CSCC(=O)N[C@@H](Cc2ccc(O)cc2)C(=O)N2CC[C@H]2C(=O)N[C@@H](CC(N)=O)C(=O)N2CCC[C@H]2C(=O)N[C@@H](Cc2cnc[nH]2)C(=O)N[C@@H](CC(C)C)C(=O)N2C[C@H](O)C[C@H]2C(=O)N[C@@H](Cc2c[nH]c3ccccc23)C(=O)N[C@@H](CO)C(=O)N[C@@H](Cc2c[nH]c3ccccc23)C(=O)N1C [Example 1176]
6.76 to 30.3 nM	4.78 to 72.9 nM				CCCC[C@H]1C(=O)N(C)CC(=O)N[C@@H](CC(=O)O)C(=O)N[C@@H](C(C)C)C(=O)N(C)[C@@H](Cc2ccccc2)C(=O)N[C@@H](Cc2ccc(CN)cc2)C(=O)N(C)CC(=O)N[C@@H](Cc2c[nH]c3ccccc23)C(=O)N[C@@H](Cc2ccc(O)cc2)C(=O)N[C@@H](CC(C)C)C(=O)N[C@H](C(=O)NCC(N)=O)CSCC(=O)N[C@@H](Cc2cccc(Cl)c2)C(=O)N(C)[C@@H](Cc2ccccc2)C(=O)N1C [Example 3122] ({CH2CO}-[Phe(3-Cl)][NMeF][NMeNle][Sar]DV[NMeF][Phe(4-CH2NH2)][Sar]WYLCG-NH2; thioether N-13)
> 30.5 nM		> 74.3 nM			CCCC[C@H]1C(=O)N(C)[C@@H](CCCC)C(=O)N[C@@H](CCCNC(=N)N)C(=O)N[C@H](C(=O)NCC(N)=O)CSCC(=O)N[C@@H](Cc2ccccc2)C(=O)N(C)[C@@H](C)C(=O)N[C@@H](CC(N)=O)C(=O)N2C[C@H](F)C[C@H]2C(=O)N[C@@H](Cc2cnc[nH]2)C(=O)N[C@@H](CC(C)C)C(=O)N(C)CC(=O)N[C@@H](Cc2c[nH]c3ccccc23)C(=O)N[C@@H](CO)C(=O)N[C@@H](Cc2c[nH]c3ccccc23)C(=O)N1C [Example 5012] ({CH2CO}-F[NMeA]N[Pro(trans-4-F)]HL[Sar]WSW[NMeNle][NMeNle]RCG-NH2; thioether N-14)
0.385 to 6.74 nM	4.78 to 72.9 nM				CCCC[C@H]1C(=O)N(C)[C@@H](CCCC)C(=O)N[C@@H](C)C(=O)N[C@H](C(=O)NCC(N)=O)CSCC(=O)N[C@@H](Cc2ccc(O)cc2)C(=O)N(C)[C@@H](C)C(=O)N[C@@H](CCCN)C(=O)N2CCC[C@H]2C(=O)N[C@@H](Cc2cnc[nH]2)C(=O)N[C@@H](CCC(=O)O)C(=O)N2C[C@H](O)C[C@H]2C(=O)N[C@@H](Cc2c[nH]c3ccccc23)C(=O)N[C@@H](CO)C(=O)N[C@@H](Cc2c[nH]c3ccccc23)C(=O)N1C [Example 1179] ({CH2CO}-Y[NMeA][Orn]PHE[Hyp]WSW[NMeNle][NMeNle]ACG-NH2; thioether N-14)
> 30.5 nM	> 74.3 nM				CCCC[C@H]1C(=O)N(C)CC(=O)N[C@@H](CC(=O)O)C(=O)N[C@@H](C(C)C)C(=O)N(C)[C@@H](Cc2ccccc2)C(=O)N[C@@H](Cc2ccc(O)cc2)C(=O)N2CCC[C@H]2C(=O)N[C@@H](Cc2c[nH]c3ccccc23)C(=O)N[C@@H](Cc2ccc(O)cc2)C(=O)N[C@@H](CC(C)C)C(=O)N[C@H](C(=O)NCC(N)=O)CSCC(=O)N[C@@H](Cc2ccccc2)C(=O)N(C)[C@@H](Cc2ccccc2)C(=O)N1C [Example 3069] (HELM PEPTIDE1{[O=C(C[*:3])[*:2]].F.[meF].[CCCC[C@@H](C(=O)[*:2])N(C)[*:1]].[Sar].D.V.[meF].Y.P.W.Y.L.C.G.[am]}$PEPTIDE1,PEPTIDE1,1:R3-14:R3$$$V2.0)
			> 10000 nM	> 10000 nM	CCCC[C@H]1C(=O)N(C)CC(=O)N[C@@H](CC(=O)O)C(=O)N[C@@H](C(C)C)C(=O)N(C)[C@@H](Cc2ccccc2)C(=O)N[C@H](Cc2ccc(O)cc2)C(=O)N(C)CC(=O)N[C@@H](Cc2c[nH]c3ccccc23)C(=O)N[C@H](Cc2ccc(O)cc2)C(=O)N[C@@H](CC(C)C)C(=O)N[C@H](C(=O)NCC(N)=O)CSCC(=O)N[C@@H](Cc2ccccc2)C(=O)N(C)[C@@H](Cc2ccccc2)C(=O)N1C [Example 3564] (HELM PEPTIDE1{[O=C(C[*:3])[*:2]].F.[meF].[CCCC[C@@H](C(=O)[*:2])N(C)[*:1]].[Sar].D.V.[meF].[dY].[Sar].W.[dY].L.C.G.[am]}$PEPTIDE1,PEPTIDE1,1:R3-14:R3$$$V2.0)
6.76 to 30.3 nM	0.158 to 4.71 nM				CCCC[C@H]1C(=O)N(C)[C@@H](CCCC)C(=O)N[C@@H](CCCNC(=N)N)C(=O)N[C@H](C(=O)NCC(N)=O)CSCC(=O)N[C@@H](Cc2cccc3[nH]ccc23)C(=O)N(C)[C@@H](C)C(=O)N[C@@H](CC(N)=O)C(=O)N2CCC[C@H]2C(=O)N[C@@H](Cc2cnc[nH]2)C(=O)N[C@@H](CC(C)C)C(=O)N(C)CC(=O)N[C@@H](Cc2c[nH]c3ccccc23)C(=O)N[C@@H](CO)C(=O)N[C@@H](Cc2c[nH]c3ccccc23)C(=O)N1C [Example 1094] ({CH2CO}-[Ala(indol-4-yl)][NMeA]NPHL[Sar]WSW[NMeNle][NMeNle]RCG-NH2; thioether N-14)
6.76 to 30.3 nM		> 74.3 nM			CCCC[C@H]1C(=O)N(C)[C@@H](CCCC)C(=O)N[C@@H](CCCNC(=N)N)C(=O)NC(C(=O)NCC(N)=O)CCSCC(=O)N[C@@H](Cc2ccc(O)cc2)C(=O)N(C)[C@@H](C)C(=O)N[C@@H](CC(N)=O)C(=O)N2CCC[C@H]2C(=O)N[C@@H](Cc2cnc[nH]2)C(=O)N[C@@H](CC(C)C)C(=O)N2CCC[C@H]2C(=O)N[C@@H](Cc2c[nH]c3ccccc23)C(=O)N[C@@H](CO)C(=O)N[C@@H](Cc2csc3ccccc23)C(=O)N1C (stereo partly shown) [Example 9018] ({CH2CO}-Y[NMeA]NPHLPWS[Bta][NMeNle][NMeNle]R[ξhCys]G-NH2; thioether N-14)
> 30.5 nM	> 74.3 nM				CCCC[C@H]1C(=O)N(C)CC(=O)N[C@@H](CC(=O)O)C(=O)N[C@@H](C(C)C)C(=O)N(C)[C@@H](Cc2ccccc2)C(=O)N[C@@H](Cc2ccc(O)cc2)C(=O)N(C)CC(=O)N[C@@H](Cc2c[nH]c3ccccc23)C(=O)N[C@@H](Cc2ccc(Cl)cc2)C(=O)N[C@@H](CC(C)C)C(=O)N[C@H](C(=O)NCC(N)=O)CSCC(=O)N[C@@H](Cc2ccccc2)C(=O)N(C)[C@@H](Cc2ccccc2)C(=O)N1C [Example 3099] ({CH2CO}-F[NMeF][NMeNle][Sar]DV[NMeF]Y[Sar]W[Phe(4-Cl)]LCG-NH2; thioether N-13)
6.76 to 30.3 nM		4.78 to 72.9 nM			CCCC[C@H]1C(=O)N(C)[C@@H](CCCC)C(=O)N[C@@H](CCCNC(=N)N)C(=O)N[C@H](C(=O)NCC(N)=O)CSCC(=O)N[C@@H](Cc2cc(F)cc(F)c2)C(=O)N(C)[C@@H](C)C(=O)N[C@@H](CC(N)=O)C(=O)N2CCC[C@H]2C(=O)N[C@@H](Cc2cnc[nH]2)C(=O)N[C@@H](CC(C)C)C(=O)N2C[C@H](O)C[C@H]2C(=O)N[C@@H](Cc2c[nH]c3ccccc23)C(=O)N[C@@H](CO)C(=O)N[C@@H](Cc2c[nH]c3ccccc23)C(=O)N1C [Example 7051] ({CH2CO}-[Phe(3,5-F2)][NMeA]NPHL[Hyp]WSW[NMeNle][NMeNle]RCG-NH2; thioether N-14)
6.76 to 30.3 nM	4.78 to 72.9 nM				CCCC[C@H]1C(=O)N(C)CC(=O)N[C@@H](CC(=O)O)C(=O)N[C@@H](C(C)C)C(=O)N(C)[C@@H](Cc2ccccc2)C(=O)N[C@@H](Cc2ccc(O)cc2)C(=O)N(C)CC(=O)N[C@@H](Cc2csc3ccccc23)C(=O)N[C@@H](Cc2ccc(O)cc2)C(=O)N[C@@H](CCC(=O)O)C(=O)N[C@H](C(=O)NCC(N)=O)CSCC(=O)N[C@@H](Cc2ccccc2)C(=O)N(C)[C@@H](Cc2ccccc2)C(=O)N1C [Example 3074] ({CH2CO}-F[NMeF][NMeNle][Sar]DV[NMeF]Y[Sar][Bta]YECG-NH2; thioether N-13)
0.385 to 6.74 nM		0.158 to 4.71 nM			CCCC[C@H]1C(=O)N(C)[C@@H](CCCC)C(=O)N[C@@H](C)C(=O)N[C@H](C(=O)NCC(N)=O)CSCC(=O)N[C@@H](Cc2ccc(O)cc2)C(=O)N(C)[C@@H](C)C(=O)N[C@@H](CC(=O)O)C(=O)N2CCC[C@H]2C(=O)N[C@@H](Cc2c[nH]cn2)C(=O)N[C@@H](CCC(=O)O)C(=O)N2C[C@H](Cc3ccccc3)C[C@H]2C(=O)N[C@@H](Cc2c[nH]c3ccccc23)C(=O)N[C@@H](CCN)C(=O)N[C@@H](Cc2c[nH]c3ccccc23)C(=O)N1C [Example 13008] ({CH2CO}-Y[NMeA]DPHE[Pro(4R-Bn)]W[Dab]W[NMeNle][NMeNle]ACG-NH2; thioether N-14)
> 30.5 nM		> 74.3 nM			CCCC[C@H]1C(=O)N(C)CC(=O)N[C@@H](CC(=O)O)C(=O)N[C@@H](C(C)C)C(=O)N(C)[C@@H](Cc2ccccc2)C(=O)N[C@@H](Cc2ccc(O)cc2)C(=O)N(C)CC(=O)N[C@@H](Cc2c[nH]c3ccccc23)C(=O)N[C@@H](Cc2ccc(O)cc2)C(=O)N[C@@H](CC(C)C)C(=O)N[C@H](C(=O)NCC(=O)O)CSCC(=O)N[C@@H](Cc2ccccc2)C(=O)N(C)[C@@H](Cc2ccccc2)C(=O)N1C [Example 3517] (HELM PEPTIDE1{[O=C(C[*:3])[*:2]].F.[meF].[CCCC[C@@H](C(=O)[*:2])N(C)[*:1]].[Sar].D.V.[meF].Y.[Sar].W.Y.L.C.G}$PEPTIDE1,PEPTIDE1,1:R3-14:R3$$$V2.0)
6.76 to 30.3 nM	4.78 to 72.9 nM				CCCC[C@H]1C(=O)N(C)[C@@H](CCCC)C(=O)N[C@@H](C)C(=O)N[C@H](C(=O)NCC(=O)O)CSCC(=O)N[C@@H](Cc2ccc(O)cc2)C(=O)N(C)[C@@H](C)C(=O)N[C@@H](CC(N)=O)C(=O)N2CCC[C@H]2C(=O)N[C@@H](Cc2cnc[nH]2)C(=O)N[C@@H](CC(C)C)C(=O)N[C@@H](CCN)C(=O)N[C@@H](Cc2c[nH]c3ccccc23)C(=O)N[C@@H](CO)C(=O)N[C@@H](Cc2c[nH]c3ccccc23)C(=O)N1C [Example 1229]
